These are literature values, as cited in patent US6414126B1, “C-aryl glucoside SGLT2 inhibitors and method” (Bristol-Myers Squibb Company, priority 1999, dated 2002).

One series has as its target T1, human SGLT1 (Homo sapiens, UniProt P13866).
T1 sequence (P13866 1-664): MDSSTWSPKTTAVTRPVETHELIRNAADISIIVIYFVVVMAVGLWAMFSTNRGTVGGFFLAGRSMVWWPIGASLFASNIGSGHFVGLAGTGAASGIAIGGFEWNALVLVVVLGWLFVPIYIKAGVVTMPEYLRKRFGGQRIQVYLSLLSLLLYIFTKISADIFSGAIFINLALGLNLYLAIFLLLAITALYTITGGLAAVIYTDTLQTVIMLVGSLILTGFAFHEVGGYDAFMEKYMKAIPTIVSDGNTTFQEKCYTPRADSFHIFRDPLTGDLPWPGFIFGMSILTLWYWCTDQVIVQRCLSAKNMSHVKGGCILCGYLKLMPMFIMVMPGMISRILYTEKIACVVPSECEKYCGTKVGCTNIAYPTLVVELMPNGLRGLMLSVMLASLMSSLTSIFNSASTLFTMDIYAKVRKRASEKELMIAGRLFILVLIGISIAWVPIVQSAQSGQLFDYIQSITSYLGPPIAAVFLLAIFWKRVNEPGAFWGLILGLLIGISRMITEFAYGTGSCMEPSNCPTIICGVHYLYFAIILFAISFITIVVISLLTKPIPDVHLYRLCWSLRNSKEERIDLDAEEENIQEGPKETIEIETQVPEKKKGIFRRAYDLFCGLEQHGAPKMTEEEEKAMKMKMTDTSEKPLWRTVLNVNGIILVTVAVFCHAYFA
As to conditions: SGLT1 transporter; read-out: Km values for uptake.

Another series has as its target T2, human SGLT2 (Homo sapiens, UniProt P31639).
T2 sequence (P31639 1-672): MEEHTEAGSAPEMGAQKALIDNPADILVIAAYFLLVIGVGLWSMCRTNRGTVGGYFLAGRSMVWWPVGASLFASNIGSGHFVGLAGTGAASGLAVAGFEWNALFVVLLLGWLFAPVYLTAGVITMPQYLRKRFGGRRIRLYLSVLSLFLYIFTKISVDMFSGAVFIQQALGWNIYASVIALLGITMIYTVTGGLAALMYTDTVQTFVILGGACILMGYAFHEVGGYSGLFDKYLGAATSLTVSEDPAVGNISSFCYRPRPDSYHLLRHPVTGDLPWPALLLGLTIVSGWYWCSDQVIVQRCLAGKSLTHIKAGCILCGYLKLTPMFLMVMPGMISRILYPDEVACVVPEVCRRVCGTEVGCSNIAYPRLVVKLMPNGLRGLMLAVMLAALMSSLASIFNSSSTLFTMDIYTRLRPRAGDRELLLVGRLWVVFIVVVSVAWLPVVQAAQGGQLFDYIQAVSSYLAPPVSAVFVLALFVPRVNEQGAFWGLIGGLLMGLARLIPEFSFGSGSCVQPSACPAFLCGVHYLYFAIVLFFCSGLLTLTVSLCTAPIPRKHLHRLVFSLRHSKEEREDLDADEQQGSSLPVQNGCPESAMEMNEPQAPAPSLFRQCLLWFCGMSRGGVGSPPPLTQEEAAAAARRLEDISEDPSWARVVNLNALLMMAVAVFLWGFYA
As to conditions: SGLT2 transporter; read-out: Km values for uptake.

With `CO[C@H]1O[C@H](CO)[C@@H](O)[C@H](O)[C@H]1O` [AMG, α-methyl-D-glucopyranoside], the Km (as a rule, the substrate concentration at which the rate is half of its maximum) was 400 µM at human SGLT1 and 1600 µM on human SGLT2.
